This test concerns T1, laccase of Aspergillus sp. HB_RZ4.
T1 construct: native extracellular enzyme purified from culture supernatant (ammonium sulfate, DEAE-cellulose, Sephadex G-100); about 62 kDa by SDS-PAGE
In words: ABTS oxidation at […] nm, Michaelis-Menten and Lineweaver-Burk. The conditions noted are these: apparent Km; ABTS 10-200 mM; assay buffer 100 mM sodium acetate pH 4.0; free enzyme. It counts as biochemical.

The structures appear in SMILES notation.

Broadly, the Km is the concentration of substrate that gives half-maximal velocity. `CCn1c(=NN=c2sc3cc(S(=O)(=O)O)ccc3n2CC)sc2cc(S(=O)(=O)O)ccc21` [ABTS, 2,2’-azino-bis (3-ethylbenzothiazoline 6-sulphonic acid)]: the Km came out at 26.8 mM.

Values taken from paper doi:10.1101/2020.02.20.957365v1, “Tree bark scrape fungus: A potential source of laccase for application in bioremediation of non-textile dyes” (biorxiv, 2020).
